Reference: US20130337564A1, “Treatment of Pluripotent Cells” (Janssen Biotech, Inc., priority 2012, published 2013)
Where “and” joins values, the source holds several entries; their conditions need not be identical. Equal values may be shown once.

Experiments:
Assay type in all cases: cell-based
[1] = tested on: cells expressing pluripotency markers derived from human embryonic stem cells; assay: MTS viability (toxicity) assay of cells expressing pluripotency markers; parameters: Raw data (duplicate), first replicate / Average: unit not given here; conditions: for Raw data (duplicate), first replicate / Raw data (duplicate), second replicate: MTS viability assay raw reading; for Raw data (duplicate), first replicate: replicate 1; for Raw data (duplicate), second replicate: replicate 2; for Average: average of duplicate MTS raw readings
How it was run: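 Cells expressing pluripotency markers, derived from human embryonic stem cells, were plated at 20,000 cells per well in 96-well clear-bottom plates and cultured overnight. Test compounds were applied in assay medium on days 1 and 2, and compound-free medium on days 3 and 4. On day 4, MTS was added and optical density at 490 nm was read in duplicate.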

[2] = tested on: human embryonic stem cells (H9 line); assay: High content screening assay: cell number (proliferative response)
Method: (§1) Maintenance of human embryonic stem cells (H9 line) was conducted as described in Example 1. Colonies of cells were maintained in an undifferentiated, pluripotent state with passage on average every four days. Passage was performed by exposing cell cultures to a solution of collagenase (1 mg/ml; Sigma-Aldrich) for 10 to 30 minutes at 37° C. followed by gentle scraping with a pipette tip to recover cell clusters. Clusters were allowed to sediment by gravity, followed by washing to remove residual collagenase. Cell clusters were split at a 1:3 ratio for routine maintenance culture or a 1:1 ratio for immediate assay. The human embryonic stem cell lines used were maintained at passage numbers less than passage 50 and routinely evaluated for normal karyotypic phenotype and absence of mycoplasma contamination.
(§2) Cell clusters used in the assay were evenly resuspended in normal culture medium and plated onto MATRIGEL-coated 96-well Packard VIEWPLATES (PerkinElmer) in volumes of […]. MEF conditioned medium supplemented with 8 ng/ml bFGF was used for initial plating and recovery. Daily feeding was conducted by aspirating spent culture medium from each well and replacing with an equal volume of fresh medium. Plates were maintained at 37° C., 5% CO2 in a humidified box throughout the duration of assay.
(§3) Screening was conducted using test compounds from a proprietary library of small molecules selected for their ability to inhibit GSK-3B enzyme activity. Compounds from this library were made available as 1 mM stocks, in a 96-well plate format in 50 mM HEPES, 30% DMSO. Screening compounds were tested in triplicate or duplicate sets. Primary screening assays were initiated by aspirating culture medium from each well followed by three washes in PBS to remove residual growth factors and serum. Test volumes of 80 to 100 μl per well were added back containing DMEM:F12 base medium (Invitrogen) supplemented with 0.5% FCS (HyClone) and 100 ng/ml activin A (R&D Biosystems) plus 10 μM test compound. Positive control wells contained the same base medium, substituting 10-20 ng/ml Wnt3a (R&D Biosystems) for the test compound. Negative control wells contained base medium with 0.5% FCS and activin A alone (AA only) or alternatively, 0.5% FCS without activin A or Wnt3a (no treatment). Wells were aspirated and fed again with identical solutions on day 2 of assay. On days 3 and 4, all assay wells were aspirated and converted to DMEM:F12 supplemented with 2% FCS and 100 ng/ml activin A (without test compound or Wnt3a); parallel negative control wells were maintained in DMEM:F12 base medium with 2% FCS and activin A (AA only) or alternatively, 2% FCS without activin A (no treatment).
(§4) At the end of culture, cells in 96-well plates were fixed with 4% paraformaldehyde at room temperature for 20 minutes, washed three times with PBS, and then permeabilized with 0.5% Triton X-100 for 20 minutes at room temperature. Alternatively, cells were fixed with ice cold 70% ethanol overnight at −20° C., washed three times with PBS, and then permeabilized with Triton X-100 for 5 minutes at 4° C. After fixing and permeabilizing, cells were washed again three times with PBS and then blocked with 4% chicken serum (Invitrogen) in PBS for 30 minutes at room temperature. Primary antibodies (goat anti-human Sox17 and goat anti-human HNF-3beta; R&D Systems) were diluted 1:100 in 4% chicken serum and added to cells for one hour at room temperature. Alexa Fluor 488 conjugated secondary antibody (chicken anti-goat IgG; Molecular Probes) was diluted 1:200 in PBS and added after washing the cells three times with PBS. To counterstain nuclei, 5 mM Draq5 (Alexis Biochemicals) was added for five minutes at room temperature. Cells were washed once with PBS and left in […] PBS for imaging.
(§5) Cells were imaged using an IN Cell Analyzer 1000 (GE Healthcare) utilizing the 51008bs dichroic for cells stained with Draq5 and Alexa Fluor 488. […]

[3] = tested on: HNF-3beta expression in human embryonic stem cells (H9 line); assay: High content screening assay: HNF-3beta protein expression (differentiation); conditions: for HNF-3b Expression Fold over Wnt 3a/AA control: total intensity normalised to Wnt 3a/AA control
Method: as §1, §2, §3, §4, §5

[4] = tested on: Sox17 expression in human embryonic stem cells (H9 line); assay: High content screening assay: Sox17 protein expression (differentiation); conditions: for SOX17 Expression, Fold over Wnt 3a/AA control: 10 μM test compound with 100 ng/ml activin A on days 1-2, H9, total intensity by IN Cell Analyzer, strong and moderate hits; for SOX-17 Expression Fold over Wnt 3a/AA control: total intensity normalised to Wnt 3a/AA control
Method: as §1, §2, §3, §4, §5

[5] = viability of cells expressing pluripotency markers, relative to control
[6] = 10 μM test compound with 100 ng/ml activin A on days 1-2, H9, total cell number by IN Cell Analyzer, strong and moderate hits
[7] = cell number in the wells analysed for HNF-3b expression
[8] = cell number in the wells analysed for HNF-3b expression, normalised to Wnt 3a/AA control
[9] = cell number in the wells analysed for SOX-17 expression
[10] = cell number in the wells analysed for SOX-17 expression, normalised to Wnt 3a/AA control
[11] = 10 μM test compound with 100 ng/ml activin A on days 1-2, H9, total intensity by IN Cell Analyzer, strong and moderate hits

## O=C1NC(=O)C(c2cn(-c3cccnc3)c3ccccc23)=C1c1n[nH]c2ccccc12 [Compound 14]
[1]; Homo sapiens, Embryonic stem cell, viability of cells expressing pluripotency markers, relative to control
  viability at 10 µM: 95.1%
[2]; Homo sapiens, Embryonic stem cell, 10 μM test compound with 100 ng/ml activin A on days 1-2, H9, total cell number by IN Cell Analyzer, strong and moderate hits, read-out: Proliferative Response, Fold over Wnt 3a/AA control
  fold induction at 10 µM: 1.05
[3]; Homo sapiens, Embryonic stem cell, 10 μM test compound with 100 ng/ml activin A on days 1-2, H9, total intensity by IN Cell Analyzer, strong and moderate hits, read-out: HNF3β Expression, Fold over Wnt 3a/AA control
  fold induction at 10 µM: 0.869
[4]
  SOX17 Expression, Fold over Wnt 3a/AA control: 1.0080 Fold over Wnt 3a/AA control

## CCN1CCOCCn2cc(c3ccccc32)C2=C(C(=O)NC2=O)c2cn(c3ccccc23)CCOCC1 [Compound 15, 11-Ethyl-6,7,10,11,12,13,15,16-octahydro-9H,23H-5,26:17,22-di(metheno)dibenzo[k,q]pyrrolo[3,4-n][1,7,4,10,19]dioxatriazacyclohenicosine-23,25(24H)-dione]
[1]
  Raw data (duplicate), first replicate: 0.162
  Raw data (duplicate), second replicate: 0.134
  Average: 0.148
[1]; [5]
  % Control: 4.5%
[2]; [6]
  Proliferative Response Fold over Wnt 3a/AA control: 1.3217 Fold over Wnt 3a/AA control and 1.0269 Fold over Wnt 3a/AA control
[2]; [7]
  Proliferative Response Total cells: 5186
[2]; [8]
  Proliferative Response Fold over Wnt 3a/AA control: 1.027 fold
[2]; [9]
  Proliferative Response Total cells: 10533
[2]; [10]
  Proliferative Response Fold over Wnt 3a/AA control: 1.322 fold
[3]; [11]
  HNF3β Expression, Fold over Wnt 3a/AA control: 0.8807 Fold over Wnt 3a/AA control
[3]
  HNF-3b Expression Total Intensity: 404710000
  HNF-3b Expression Fold over Wnt 3a/AA control: 0.8807 fold
[4]
  SOX17 Expression, Fold over Wnt 3a/AA control: 1.2678 Fold over Wnt 3a/AA control
  SOX-17 Expression Total Intensity: 475250000
  SOX-17 Expression Fold over Wnt 3a/AA control: 1.2678 fold

## O=C1NC(=O)C2=C1c1cn(c3ncccc13)CCOCCOCCOCCn1cc2c2cccnc21 [Compound 167]
[1]
  Raw data (duplicate), first replicate: 0.804
  Raw data (duplicate), second replicate: 0.903
  Average: 0.853
[1]; [5]
  % Control: 109.0%
[2]; [6]
  Proliferative Response Fold over Wnt 3a/AA control: 0.9928 Fold over Wnt 3a/AA control
[2]; [7]
  Proliferative Response Total cells: 5013
[2]; [8]
  Proliferative Response Fold over Wnt 3a/AA control: 0.9928 fold
[2]; [9]
  Proliferative Response Total cells: 6217
[2]; [10]
  Proliferative Response Fold over Wnt 3a/AA control: 0.7801 fold
[3]; [11]
  HNF3β Expression, Fold over Wnt 3a/AA control: 0.9515 Fold over Wnt 3a/AA control
[3]
  HNF-3b Expression Total Intensity: 437235000
  HNF-3b Expression Fold over Wnt 3a/AA control: 0.9515 fold
[4]
  SOX17 Expression, Fold over Wnt 3a/AA control: 0.9014 Fold over Wnt 3a/AA control
  SOX-17 Expression Total Intensity: 337920000
  SOX-17 Expression Fold over Wnt 3a/AA control: 0.9014 fold
